Test results from the NIST ThermoML archive (doi:10.1021/je400858t).

How the values were obtained:
[1] = for mass density / thermal conductivity / viscosity: 101.33 kPa, Liquid; for mass density: Vibrating tube method; for thermal conductivity: Parallel plate method; for viscosity: Cone and plate viscometry; for Glass transition temperature: DTA
[2] = molar heat capacity at constant pressure; conditions: 101.33 kPa, Liquid, Small sample (50 mg) DSC

CCCCCC[n+]1ccn(C)c1.O=S(=O)([N-]S(=O)(=O)C(F)(F)F)C(F)(F)F
[1]
Conditions	mass density [kg/m3]	thermal conductivity [W/m/K]
283 K	1385.63	–
293 K	1376.5	–
300 K	–	0.12
303 K	1367.38	–
313 K	1358.3	–
323 K	1349.27	–
333 K	1340.34	–
343 K	1331.41	–
353 K	1322.54	–
363 K	1313.73	–
375 K	–	0.12

CCOP(=O)([O-])OCC.CCn1cc[n+](C)c1 [1-ethyl-3-methylimidazolium diethyl phosphate]
Conditions	molar heat capacity at constant pressure [J/K/mol]	thermal conductivity [W/m/K]	viscosity [mPa·s]
[1], 283 K	–	–	1280
[1], 293 K	–	–	580
[1], 298 K	–	–	410
[1], 300 K	–	0.19	–
[1], 303 K	–	–	300
[1], 313 K	–	–	168
[1], 323 K	–	–	101
[1], 333 K	–	–	66
[1], 343 K	–	–	45
[1], 375 K	–	0.19	–
[2], 298 K	459.81	–	–
[2], 303 K	465.1	–	–
[2], 308 K	467.74	–	–
[2], 313 K	470.38	–	–
[2], 318 K	475.67	–	–
[2], 323 K	478.31	–	–
[2], 328 K	480.95	–	–
[2], 333 K	486.24	–	–
[2], 338 K	488.88	–	–
[2], 343 K	494.16	–	–

Conditions	Glass transition temperature [°C]
[1]	-66

CCn1cc[n+](C)c1.CS(=O)(=O)[O-] [1-ethyl-3-methylimidazolium methanesulfonate]
[1]
Conditions	thermal conductivity [W/m/K]	viscosity [mPa·s]
283 K	–	450
293 K	–	210
298 K	–	155
300 K	0.21	–
303 K	–	117
313 K	–	70
323 K	–	45
333 K	–	31
343 K	–	23
375 K	0.21	–

Conditions	Glass transition temperature [°C]
[1]	-62

CCn1cc[n+](C)c1.N#C[S-] [1-ethyl-3-methylimidazolium thiocyanate]
[1]
Conditions	thermal conductivity [W/m/K]
300 K	0.21
375 K	0.21

Conditions	Glass transition temperature [°C]
[1]	-94

CCn1cc[n+](C)c1.O=C([O-])C(F)(F)F [1-ethyl-3-methylimidazolium trifluoroacetate]
[1]
Conditions	thermal conductivity [W/m/K]
300 K	0.17
375 K	0.17

CCn1cc[n+](C)c1.O=S(=O)([O-])C(F)(F)F [1-ethyl-3-methylimidazolium trifluoromethanesulfonate]
[1]
Conditions	thermal conductivity [W/m/K]
300 K	0.16
375 K	0.16
